Reference: ChEMBL document CHEMBL3400084, “Synthesis and evaluation of tetrahydroindazole derivatives as sigma-2 receptor ligands” (Bioorg Med Chem, 2015)

What was measured:
[1] = molecular target: Sigma non-opioid intracellular receptor 1 (Cavia porcellus, UniProt Q60492); assay: Displacement of (+)-[3H]pentazocine from sigma 1 receptor in guinea pig brain homogenate after 120 mins by beta counting; type: tissue-based
[2] = Displacement of [3H]-di-o-tolylguanidine from sigma 2 receptor in Sprague-Dawley rat liver membranes after 120 mins by beta counting in presence of (+)-pentazocine; type: cell membranes, Membrane
[3] = Selectivity ratio of Ki for sigma 1 receptor in guinea pig brain homogenate to Ki for sigma 2 receptor in Sprague-Dawley rat liver membranes; type: cell membranes

Sigma non-opioid intracellular receptor 1, sequence (Q60492 whole entry): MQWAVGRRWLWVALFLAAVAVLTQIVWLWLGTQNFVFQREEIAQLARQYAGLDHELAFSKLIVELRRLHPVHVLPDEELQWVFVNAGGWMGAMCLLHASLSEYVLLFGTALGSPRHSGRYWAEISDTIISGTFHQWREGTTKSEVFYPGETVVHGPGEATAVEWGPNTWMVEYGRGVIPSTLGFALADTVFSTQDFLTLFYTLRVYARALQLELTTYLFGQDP

Which Ki [1] does the source give for `Cc1nn(-c2ccc(C(N)=O)c(NC3CC4CCCC(C3)N4)c2)c2c1C(=O)CC(C)(C)C2` (centres undefined) here?
Its Ki is > 1000 nM.

And the Ki [2]?
The Ki was 46.6 nM.

And the Ratio Ki [3]?
Its Ratio Ki is > 21.

Which results are given for `COc1cc2c(cc1OC)CN(CCCNc1cc(-n3nc(C)c4c3CC(C)(C)CC4=O)ccc1C(N)=O)CC2`?
Ki [1]: > 1000 nM; Ki [2]: 89.8 nM; Ratio Ki [3]: > 11

Which results are given for `COc1cc2c(cc1OC)CN(CCNc1cc(-n3nc(C)c4c3CC(C)(C)CC4=O)ccc1C(N)=O)CC2`?
Ki [1]: > 1000 nM; Ki [2]: 820 nM

Which results are given for `COc1cc2c(cc1OC)CN(CCCCNc1cc(-n3nc(C)c4c3CC(C)(C)CC4=O)ccc1C(N)=O)CC2`?
Ki [1]: > 1000 nM; Ki [2]: 142 nM; Ratio Ki [3]: > 7

For `COc1cc2c(cc1OC)CN(CCCCCCNc1cc(-n3nc(C)c4c3CC(C)(C)CC4=O)ccc1C(N)=O)CC2`, which Ki [1] is on record?
The Ki was > 1000 nM.

What about the Ki [2] of the same molecule?
The Ki was 21500 nM.

Which Ki [1] does the source give for `COc1cc2c(cc1OC)CN(c1cc(-n3nc(C)c4c3CC(C)(C)CC4=O)ccc1C(N)=O)CC2` here?
The Ki was > 1000 nM.

What about the Ki [2] of the same molecule?
Its Ki is 18400 nM.

Which Ki [2] does the source give for `Cc1ccccc1NC(=N)Nc1ccccc1C` [DITOLYLGUANIDINE] here?
Its Ki is 19.4 nM.

What does the source list for `COc1cc2c(cc1OC)CN(CCCCCNc1cc(-n3nc(C)c4c3CC(C)(C)CC4=O)ccc1C(N)=O)CC2`?
Ki [1]: > 1000 nM; Ki [2]: 74.5 nM; Ratio Ki [3]: > 13
